In patent US6420455B1, “Antimicrobial composition containing photosensitizers articles, and methods of use” (3M Innovative Properties Company, priority 1999, dated 2002):

Assays:
Test in all cases: Zone of inhibition of dye-dipped filter disks on agar lawn
Staph. Aureus = assay type: cell-based, Staphylococcus aureus; conditions: for Zone of Inhibition in Dark: 10 mg/ml dye in water on 6-mm disk; for Zone of Inhibition in Room Light, 15 Minutes / Zone of Inhibition in Room Light Overnight / Zone of Inhibition in Room Light (after 30 min.): 10 mg/ml dye on 6-mm disk
Description: (§1) The procedure used for testing for antibacterial and antifungal activity is as follows.
Bacteria or fungi stock was plated onto Trypticase Soy Broth (TSB) agar (Becton Dickinson, Cockeysville, Md.) and incubated at 37° C. overnight, at which time several colonies were transferred to phosphate buffered saline (PBS) to give a solution with final concentration of 10^6 bacteria/ml or fungi/ml, as determined by comparison of turbidity with McFarland standards. Subsequently, a lawn of the bacterium or fungus was prepared by triple swabbing a Trypticase Soy broth agar plate (prepared using TSB and agar according to label instructions). Then, 6-mm diameter paper filter disks were dipped into one of the dyed solutions, blotted to remove the excess solution, and placed on the agar plates. […]
(§2) The plates were removed from the incubator and inspected for clear areas surrounding treated 6-mm filter disks that are indicative of prevention of growth of bacteria. The diameter of each clear area was measured and recorded and compared with controls.

E. faecium = assay type: cell-based, Enterococcus faecium; conditions: for Zone of Inhibition in Dark: 10 mg/ml dye on 6-mm disk
Description: as §1
(§3) Bacteria or fungi stock was plated onto Trypticase Soy Broth (TSB) agar (Becton Dickinson, Cockeysville, Md.) and incubated at 37° C. overnight, at which time several colonies were transferred to phosphate buffered saline (PBS) to give a solution with final concentration of 10^6 bacteria/ml or fungi/ml, as determined by comparison of turbidity with McFarland standards. Subsequently, a lawn of the bacterium or fungus was prepared by triple swabbing a Trypticase Soy broth agar plate (prepared using TSB and agar according to label instructions). Then, 6-mm diameter paper filter disks were dipped into one of the dyed solutions, blotted to remove the excess solution, and placed on the agar plates. Each plate was then either kept in the dark (control) or irradiated for 15 minutes in room light or for overnight in room light before incubation at 37° C. for 24 hours.
as §2

C. albicans = assay type: cell-based, Candida albicans; conditions: for Zone of Inhibition in Dark: 10 mg/ml dye on 6-mm disk
Description: as §1, §3, §2

P. aeruginosa = assay type: cell-based, Pseudomonas aeruginosa; conditions: for Zone of Inhibition in Dark: 10 mg/ml dye on 6-mm disk
Description: as §1, §3, §2

Salmonella spp. = assay type: cell-based; conditions: for Zone of Inhibition in Dark: 10 mg/ml dye on 6-mm disk
Description: as §1, §3, §2

E. coli = assay type: cell-based, Escherichia coli; conditions: for Zone of Inhibition in Dark: 10 mg/ml dye on 6-mm disk
Description: as §1, §3, §2

SMILES	Zone of Inhibition in Dark (Staph. Aureus)	Zone of Inhibition in Room Light, 15 Minutes (Staph. Aureus)	Zone of Inhibition in Room Light Overnight (Staph. Aureus)	Zone of Inhibition in Dark (E. faecium)	Zone of Inhibition in Room Light, 15 Minutes (E. faecium)	Zone of Inhibition in Room Light Overnight (E. faecium)	Zone of Inhibition in Dark (C. albicans)	Zone of Inhibition in Room Light, 15 Minutes (C. albicans)	Zone of Inhibition in Room Light Overnight (C. albicans)	Zone of Inhibition in Dark (P. aeruginosa)	Zone of Inhibition in Room Light, 15 Minutes (P. aeruginosa)	Zone of Inhibition in Room Light Overnight (P. aeruginosa)	Zone of Inhibition in Dark (Salmonella spp.)	Zone of Inhibition in Room Light, 15 Minutes (Salmonella spp.)	Zone of Inhibition in Room Light Overnight (Salmonella spp.)	Zone of Inhibition in Dark (E. coli)	Zone of Inhibition in Room Light, 15 Minutes (E. coli)	Zone of Inhibition in Room Light Overnight (E. coli)	Zone of Inhibition in Room Light (after 30 min.) (Staph. Aureus)
O=C([O-])c1c(Cl)c(Cl)c(Cl)c(Cl)c1-c1c2cc(I)c(=O)c(I)c-2oc2c(I)c([O-])c(I)cc12.[Na+].[Na+] [Rose Bengal disodium salt]	23 mm	21 mm	36 mm	19 mm	19 mm	34 mm	0 mm	0 mm	13 mm	0 mm	0 mm	13 mm	7 mm	8 mm	19 mm	0 mm	0 mm	11 mm	
CN(C)c1ccc2nc3ccc(=[N+](C)C)cc-3sc2c1 [Methylene Blue]	18 mm	20 mm	28 mm	16 mm	16 mm	19 mm	12 mm	12 mm	18 mm	0 mm	0 mm	0 mm	0 mm	0 mm	0 mm	8 mm	0 mm	0 mm	
CN(C)c1ccc(C(=C2C=CC(=[N+](C)C)C=C2)c2ccc(N(C)C)cc2)cc1 [Crystal Violet]	30 mm																		30 mm
Cc1cc2nc3ccc(N(C)C)cc3[s+]c2cc1N.[Cl-] [Toluidine Blue O]	20 mm																		19 mm
